Assay results: patent publication US10829473B2, “Modulators of the cystic fibrosis transmembrane conductance regulator protein and methods of use” (AbbVie Overseas S.Á.R.L., priority 2017, dated 2020)
pEC50: −log10 of the molar value. Where two headings read alike, the source gives them in different places.

Molecular target: T1, F508delCFTR (Homo sapiens, UniProt P13569, DEL508-508)
T1 construct: expressed in transfected cells; host or cells: CFBE41o- human lung derived epithelial cells (CFBE41o-F508delCFTR-HRP), doxycycline-inducible
Test: Cell Surface Expression-Horse Radish Peroxidase (CSE-HRP) Assay;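 as to EC50 (with co-corrector): co-corrector chromenyl benzoic acid corrector at 2 or 3 µM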;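 as to Maximum % activity (without co-corrector): % of on-plate positive control chromenyl benzoic acid corrector at 2 or 3 µM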
Assay type: cell-based
Conditions: for Maximum % activity (with co-corrector) / Emax: maximum at any tested concentration; for Emax: read-out: Maximum % activity (without co-corrector)
Procedure, shortened: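 Corrector compounds were given as 8-point 3-fold series from 20 or 30 μM, with or without a 2 μM co-corrector, for 18-24 h at 33 °C. Surface HRP was read by luminol luminescence as % of positive control; variable-Hill-slope sigmoidal fitting gave EC50 from triplicate plates.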

[1] = test compound alone, without co-corrector, read-out: EC50 (without co-corrector)
[2] = with co-corrector, read-out: EC50 (with co-corrector)
[3] = test compound with co-corrector
[4] = test compound with co-corrector, read-out: EC50 (with co-corrector)
[5] = test compound without co-corrector
[6] = test compound without co-corrector, read-out: EC50 (without co-corrector)

T1 sequence (P13569 with tags, fused parts or gaps DEL508-508): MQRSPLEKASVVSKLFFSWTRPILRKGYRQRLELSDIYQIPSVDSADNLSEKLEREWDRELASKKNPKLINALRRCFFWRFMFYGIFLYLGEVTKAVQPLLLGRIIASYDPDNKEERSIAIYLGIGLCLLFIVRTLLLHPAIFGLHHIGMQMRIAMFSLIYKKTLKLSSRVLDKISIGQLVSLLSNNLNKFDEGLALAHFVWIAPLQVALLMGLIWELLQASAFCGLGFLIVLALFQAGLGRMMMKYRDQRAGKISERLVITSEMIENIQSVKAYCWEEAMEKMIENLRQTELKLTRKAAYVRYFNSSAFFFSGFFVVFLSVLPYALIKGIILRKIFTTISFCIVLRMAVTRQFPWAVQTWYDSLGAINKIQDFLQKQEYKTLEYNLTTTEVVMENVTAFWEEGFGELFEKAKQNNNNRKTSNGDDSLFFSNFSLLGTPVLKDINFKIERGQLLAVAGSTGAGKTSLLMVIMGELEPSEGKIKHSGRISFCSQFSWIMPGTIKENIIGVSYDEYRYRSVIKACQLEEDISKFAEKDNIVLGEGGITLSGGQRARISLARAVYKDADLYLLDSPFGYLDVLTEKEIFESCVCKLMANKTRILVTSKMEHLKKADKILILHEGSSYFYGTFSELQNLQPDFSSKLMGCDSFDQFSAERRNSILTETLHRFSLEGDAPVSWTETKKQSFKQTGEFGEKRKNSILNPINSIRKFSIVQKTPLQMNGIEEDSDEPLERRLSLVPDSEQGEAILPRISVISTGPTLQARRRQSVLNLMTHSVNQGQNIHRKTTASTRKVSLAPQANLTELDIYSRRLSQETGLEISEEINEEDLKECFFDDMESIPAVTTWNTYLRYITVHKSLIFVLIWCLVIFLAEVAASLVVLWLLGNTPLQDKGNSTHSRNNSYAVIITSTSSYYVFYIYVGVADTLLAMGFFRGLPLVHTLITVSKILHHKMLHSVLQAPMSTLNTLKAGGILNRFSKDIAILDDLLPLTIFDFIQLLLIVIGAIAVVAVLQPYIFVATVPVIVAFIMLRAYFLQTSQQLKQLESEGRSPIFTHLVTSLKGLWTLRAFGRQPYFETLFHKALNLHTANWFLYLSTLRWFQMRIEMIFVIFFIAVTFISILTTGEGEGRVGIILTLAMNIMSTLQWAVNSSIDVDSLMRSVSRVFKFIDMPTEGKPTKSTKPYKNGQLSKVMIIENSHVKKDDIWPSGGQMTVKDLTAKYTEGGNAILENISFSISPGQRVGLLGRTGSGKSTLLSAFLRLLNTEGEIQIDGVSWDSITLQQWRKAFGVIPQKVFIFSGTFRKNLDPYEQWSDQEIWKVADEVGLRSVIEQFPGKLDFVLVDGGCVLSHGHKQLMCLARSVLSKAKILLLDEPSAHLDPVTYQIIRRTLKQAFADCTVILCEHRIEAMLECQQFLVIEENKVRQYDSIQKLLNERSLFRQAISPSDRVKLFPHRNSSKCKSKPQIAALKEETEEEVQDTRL

| SMILES | pEC50 [1] | Maximum % activity (with co-corrector) (with co-corrector) | pEC50 [2] | Emax (without co-corrector) [%] | Maximum % activity (with co-corrector) [3] | pEC50 [4] | Emax [5] [%] | pEC50 [6] |
| --- | --- | --- | --- | --- | --- | --- | --- | --- |
| O=C(NS(=O)(=O)Cc1ccccc1)C1(c2ccc(Cl)cc2Cl)CC1 [Example III-104, 1-(2,4-dichlorophenyl)-N-(phenylmethanesulfonyl)cyclopropane-1-carboxamide] | < 5.00 | ++ (≥150 and <350) | 5.00 to 5.52 | < 50 | – | – | – | – |
| COc1ncc(C2CCC2)cc1C1(C(=O)NS(=O)(=O)c2cccc3ccn(C)c23)CC1 [Example I-20, 1-(5-cyclobutyl-2-methoxypyridin-3-yl)-N-(1-methyl-1H-indole-7-sulfonyl)cyclopropane-1-carboxamide] | > 5.52 | +++ (≥350) | > 5.52 | > 150 | – | – | – | – |
| COc1cc(C2CCC2)cc(OC)c1C1(C(=O)NS(=O)(=O)c2cccc3[nH]ncc23)CC1 [II-76] | 5.00 to 5.52 | +++ (≥350) | 5.00 to 5.52 | > 150 | – | – | – | – |
| COc1ccc(C(OC)C(F)(F)F)cc1C1(C(=O)NS(=O)(=O)c2cccc3ncccc23)CC1 (stereo not shown) [II-86] | 5.00 to 5.52 | +++ (≥350) | > 5.52 | > 150 | – | – | – | – |
| Cc1ccc2c(S(=O)(=O)NC(=O)C3(c4cc(N5CCC5)cnc4OC(C)C)CC3)cccc2n1 [Example GI-84, 1-{5-(azetidin-1-yl)-2-[(propan-2-yl)oxy]pyridin-3-yl}-N-(2-methylquinoline-5-sulfonyl)cyclopropane-1-carboxamide] | – | – | – | – | +++ (≥350) | > 5.52 | > 150 | 5.00 to 5.52 |
| COc1ccc(OC(F)F)cc1C1(C(=O)NS(=O)(=O)c2cccc3ncccc23)CC1 [Example I-65, 1-[5-(difluoromethoxy)-2-methoxyphenyl]-N-(quinoline-5-sulfonyl)cyclopropane-1-carboxamide] | 5.00 to 5.52 | +++ (≥350) | > 5.52 | > 150 | – | – | – | – |
| COCC1(c2ccc(OC)c(C3(C(=O)NS(=O)(=O)c4cccc5nc(N)ccc45)CC3)c2)CC1 [II-82] | 5.00 to 5.52 | +++ (≥350) | > 5.52 | > 150 | – | – | – | – |
| O=C(NS(=O)(=O)Cc1ccccc1)C1(c2ccc(Cl)c(Cl)c2)CC1 [Example III-115, 1-(3,4-dichlorophenyl)-N-(phenylmethanesulfonyl)cyclopropane-1-carboxamide] | < 5.00 | + (<150) | < 5.00 | < 50 | – | – | – | – |
| O=C(NS(=O)(=O)Cc1ccccc1)C1(c2ccc(Cl)cc2)CC1 [Example III-114, 1-(4-chlorophenyl)-N-(phenylmethanesulfonyl)cyclopropane-1-carboxamide] | < 5.00 | + (<150) | 5.00 to 5.52 | < 50 | – | – | – | – |
| CCCS(=O)(=O)NC(=O)C1(c2ccc(Cl)cc2Cl)CC1 [Example III-107, 1-(2,4-dichlorophenyl)-N-(propane-1-sulfonyl)cyclopropane-1-carboxamide] | < 5.00 | + (<150) | < 5.00 | < 50 | – | – | – | – |
| CCc1ccc(OC(C)C)c(C2(C(=O)NS(=O)(=O)c3cccc4[nH]ccc34)CC2)n1 [Example GI-56, 1-{6-ethyl-3-[(propan-2-yl)oxy]pyridin-2-yl}-N-(1H-indole-4-sulfonyl)cyclopropane-1-carboxamide] | – | – | – | – | +++ (≥350) | > 5.52 | > 150 | 5.00 to 5.52 |
| Cc1cccc(C2(C(=O)NS(=O)(=O)c3ccccc3C)CCOCC2)c1 [Example III-82, N-(2-methylbenzene-1-sulfonyl)-4-(3-methylphenyl)oxane-4-carboxamide] | < 5.00 | + (<150) | < 5.00 | < 50 | – | – | – | – |

Next, values leading:

| pEC50 [1] | Maximum % activity (with co-corrector) (with co-corrector) | pEC50 [2] | Emax (without co-corrector) [%] | Maximum % activity (with co-corrector) [3] | pEC50 [4] | Emax [5] [%] | pEC50 [6] | SMILES |
| --- | --- | --- | --- | --- | --- | --- | --- | --- |
| – | – | – | – | +++ (≥350) | > 5.52 | > 150 | > 5.52 | CC(C)COc1ncc(N2CCCC2)cc1C1(C(=O)NS(=O)(=O)c2cccc3[nH]ccc23)CC1 [Example GI-70, N-(1H-indole-4-sulfonyl)-1-[2-(2-methylpropoxy)-5-(pyrrolidin-1-yl)pyridin-3-yl]cyclopropane-1-carboxamide] |
| – | – | – | – | +++ (≥350) | 5.00 to 5.52 | > 150 | 5.00 to 5.52 | CC(C)Oc1ncc(C2CCC2)cc1C1(C(=O)NS(=O)(=O)c2cccc3c2CCCN3)CC1 [GII-25, 1-{5-cyclobutyl-2-[(propan-2-yl)oxy]pyridin-3-yl}-N-(1,2,3,4-tetrahydroquinoline-5-sulfonyl)cyclopropane-1-carboxamide] |
| – | – | – | – | +++ (≥350) | 5.00 to 5.52 | > 150 | 5.00 to 5.52 | CCc1ccc(OC(C)C)c(C2(C(=O)NS(=O)(=O)c3cccc4nc(C)ccc34)CC2)n1 [Example GI-54, 1-{6-ethyl-3-[(propan-2-yl)oxy]pyridin-2-yl}-N-(2-methylquinoline-5-sulfonyl)cyclopropane-1-carboxamide] |
| 5.00 to 5.52 | +++ (≥350) | > 5.52 | > 150 | – | – | – | – | COc1cc(C2CCC2)cc(OC)c1C1(C(=O)NS(=O)(=O)c2cccn3nccc23)CC1 [II-68] |
| – | – | – | – | +++ (≥350) | > 5.52 | > 150 | > 5.52 | Cc1cnc(OCC(C)C)c(C2(C(=O)NS(=O)(=O)c3cccc4ncccc34)CC2)c1 [Example GI-42, 1-[5-methyl-2-(2-methylpropoxy)pyridin-3-yl]-N-(quinoline-5-sulfonyl)cyclopropane-1-carboxamide] |
| > 5.52 | +++ (≥350) | > 5.52 | > 150 | – | – | – | – | CCc1cnc(OC(C)C)c(C2(C(=O)NS(=O)(=O)c3cccc4ncccc34)CC2)c1 [Example GI-13, 1-{5-ethyl-2-[(propan-2-yl)oxy]pyridin-3-yl}-N-(quinoline-5-sulfonyl)cyclopropane-1-carboxamide] |
| > 5.52 | +++ (≥350) | > 5.52 | > 150 | – | – | – | – | COC[C@H](C)Oc1ccc(C)cc1C1(C(=O)NS(=O)(=O)c2cccc3nc(C)ccc23)CC1 [II-104] |
| < 5.00 | ++ (≥150 and <350) | 5.00 to 5.52 | < 50 | – | – | – | – | CN(C)c1cccc2c(S(=O)(=O)NC(=O)C3(c4cccc(Cl)c4)CC3)cccc12 [Example III-58, 1-(3-chlorophenyl)-N-[5-(dimethylamino)naphthalene-1-sulfonyl]cyclopropane-1-carboxamide] |
| > 5.52 | +++ (≥350) | > 5.52 | > 150 | – | – | – | – | COc1ccc(C2CCC2)cc1C1(C(=O)NS(=O)(=O)c2cccc3cnn(C)c23)CC1 [Example I-60, 1-(5-cyclobutyl-2-methoxyphenyl)-N-(1-methyl-1H-indazole-7-sulfonyl)cyclopropane-1-carboxamide] |
| 5.00 to 5.52 | +++ (≥350) | > 5.52 | > 150 | – | – | – | – | CCCc1nc(C(F)(F)F)ccc1C1(C(=O)NS(=O)(=O)c2cccc3ncccc23)CC1 [Example GI-4, 1-[2-propyl-6-(trifluoromethyl)pyridin-3-yl]-N-(quinoline-5-sulfonyl)cyclopropane-1-carboxamide] |
| 5.00 to 5.52 | +++ (≥350) | > 5.52 | > 150 | – | – | – | – | COc1cc(C2(C(=O)NS(=O)(=O)c3cccc4ncccc34)CC2)c(OCC(C)C)cn1 [Example GI-19, 1-[2-methoxy-5-(2-methylpropoxy)pyridin-4-yl]-N-(quinoline-5-sulfonyl)cyclopropane-1-carboxamide] |
| – | – | – | – | +++ (≥350) | > 5.52 | > 150 | > 5.52 | CC(C)Oc1ncc(N2CCCC2)cc1C1(C(=O)NS(=O)(=O)c2cccc3[nH]ccc23)CC1 [Example GI-64, N-(1H-indole-4-sulfonyl)-1-{2-[(propan-2-yl)oxy]-5-(pyrrolidin-1-yl)pyridin-3-yl}cyclopropane-1-carboxamide] |
| < 5.00 | ++ (≥150 and <350) | 5.00 to 5.52 | < 50 | – | – | – | – | O=C(OCc1ccccc1)N1CCC(S(=O)(=O)NC(=O)C2(c3ccc(Cl)cc3Cl)CC2)CC1 [Example III-22, benzyl 4-{[1-(2,4-dichlorophenyl)cyclopropane-1-carbonyl]sulfamoyl}piperidine-1-carboxylate] |
| 5.00 to 5.52 | +++ (≥350) | 5.00 to 5.52 | > 150 | – | – | – | – | Cc1cnc(OC(C)C)c(C2(C(=O)NS(=O)(=O)c3cccc4[nH]ncc34)CC2)c1 [Example III-131, N-(1H-indazole-4-sulfonyl)-1-{5-methyl-2-[(propan-2-yl)oxy]pyridin-3-yl}cyclopropane-1-carboxamide] |
| > 5.52 | +++ (≥350) | > 5.52 | > 150 | – | – | – | – | COc1ccc(C2CCC2)cc1C1(C(=O)NS(=O)(=O)c2cccc3c2CCN3)CC1 [Example I-54, 1-(5-cyclobutyl-2-methoxyphenyl)-N-(2,3-dihydro-1H-indole-4-sulfonyl)cyclopropane-1-carboxamide] |
| > 5.52 | +++ (≥350) | > 5.52 | > 150 | – | – | – | – | COc1ncc(C2CCC2)cc1C1(C(=O)NS(=O)(=O)c2cccc3[nH]ccc23)CC1 [Example I-21, 1-(5-cyclobutyl-2-methoxypyridin-3-yl)-N-(1H-indole-4-sulfonyl)cyclopropane-1-carboxamide] |
